Experimental data: ChEMBL document CHEMBL4610027, “Identification of Mycobacterium tuberculosis CtpF as a target for designing new antituberculous compounds” (Bioorg Med Chem, 2020)

Assay: Inhibition of calcium stimulated Mycobacterium tuberculosis H37Ra CtpF mutant ATPase activity using Na2ATP as substrate preincubated for 30 mins followed by substrate addition and measured after 30 mins by colorimetric analysis

Work on `CCC[C@H](C)NC(=O)CSc1nc2cc(S(=O)(=O)Nc3ccccc3OC)ccc2o1` yielded an IC50 of 109 µM.

`COCC(=O)Nc1c(C(=O)OC)n(CCC(C)C)c2ncc(N[C@@H](C)C(C)(C)O)cc12` gave an IC50 of 38.4 µM.

Compound `NS(=O)(=O)[C@H]1CC=C(CNC(=O)CCCc2c[nH]c3ccccc23)S1` has an IC50 of 100 µM.

`CCCCC(=O)Nc1cccc(C(=O)NCCCNc2cccnc2)c1` showed an IC50 of 96.9 µM.

In the case of `C[C@@H](OC(=O)CCCNC1=NS(=O)(=O)c2ccccc21)C(=O)c1c[nH]c2ccccc12`, the IC50 is reported as 102 µM.

In the case of `O=C(CCCC[C@@H]1SC[C@@H]2NC(=O)N[C@@H]21)NCc1cn(-c2ccccc2)nc1-c1ccccc1`, the IC50 is reported as 76.1 µM.

`CC(=O)C1=C(O)[C@@H]2[C@H]3c4c[nH]c5cccc(c45)C[C@H]3C(C)(C)N2C1=O` [CYCLOPIAZONIC ACID] showed an IC50 of 94.5 µM.
